In patent publication US20240368122A1, “JAK2 INHIBITORS AND METHODS OF USE THEREOF” (RELAY THERAPEUTICS, INC., priority 2021, published 2024):
Where two headings read alike, the source gives them in different places.

Legend:
[1] = target: T1, JAK2 JH2 WT (V536-D812) [W659A, W777A, F794H solubilizing mutations] (Homo sapiens, UniProt O60674, F794H/W659A/W777A); assay: Surface Plasmon Resonance (SPR) binding assay, JAK2 JH2 domain
T1 construct: **JAK2 JH2 WT (V536-D812) [W659A, W777A, F794H solubilizing mutations]; C-thrombin-avi-His6; thrombin cleavage site (C); His6 (C); purchased Biortus
T1 sequence (O60674 536-812 W659A/W777A/F794H): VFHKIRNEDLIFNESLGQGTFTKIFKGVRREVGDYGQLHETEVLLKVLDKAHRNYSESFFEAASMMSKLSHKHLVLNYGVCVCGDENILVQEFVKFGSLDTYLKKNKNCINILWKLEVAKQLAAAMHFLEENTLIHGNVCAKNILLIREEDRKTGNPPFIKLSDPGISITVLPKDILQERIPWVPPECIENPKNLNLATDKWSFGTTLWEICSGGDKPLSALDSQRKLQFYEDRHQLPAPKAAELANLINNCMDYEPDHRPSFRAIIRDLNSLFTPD
Summary of the method: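 Kinetics came from 1:1 fits of single-cycle runs at 20 °C: four 3-fold dilutions from 5 uM for JH1 or 500 nM for JH2, 60 s association, and 300 s or 1200 s dissociation respectively. Protein was freshly captured per compound in the presence of 10 uM stabilizer compound, with running buffer of pH 7.5 HEPES/NaCl/glycerol/DTT plus 2% DMSO.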

[2] = tested on: TF1 JAK2 V617F STAT3 reporter; assay: Cellular TF1 STAT3 assay (luciferase reporter), JAK2 V617F; format: cell-based; settings: read-out: Cell PD-TF1 JAK2 V617F STAT3 (IC50)
Summary of the method: (§1)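 TF1 V617F JAK2 reporter cells, 10k/well; 10-pt 1:3 dose response from 10 mM 1000× DMSO stock; 18-20 h, 37 °C, 5% CO2; ONE-glo, 10 min RT; luminescence. Triplicate plates, DMSO vehicle.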

[3] = tested on: TF1 JAK2 V617F STAT5 reporter; assay: Cellular TF1 STAT5 assay (luciferase reporter), JAK2 V617F; format: cell-based; settings: read-out: Cell PD TF1 V617F STAT5 (IC50)
Summary of the method: as §1

[4] = Homo sapiens, TF-1, TF1 cells, JAK2 V617F

| Kd ([1]; SPR, JAK2 JH2 domain) | IC50 ([2]; TF1 JAK2 V617F) | IC50 ([3]; TF1 JAK2 V617F) | Kd [1] | IC50 [2, 4] | IC50 [3, 4] | SMILES |
| --- | --- | --- | --- | --- | --- | --- |
| 0.01 to 10 nM | 500 to 5000 nM | 500 to 5000 nM |  |  |  | CNC(=O)c1nnc(NC(=O)C2CC2)cc1Nc1cccc(-c2ccc(C(=O)N(C)Cc3cc(C#N)ccn3)c(C#N)c2)c1OC [Compound 118] |
|  |  |  | 0.01 to 10 nM | 10 to 50 nM | 10 to 50 nM | CCS(=O)(=O)c1ccnc(CN(C)C(=O)c2ccc(-c3cccc(Nc4cc(NC(=O)C5CC5)nnc4C(=O)NC)c3OC)cn2)c1 [Compound 394] |
|  |  |  | 0.01 to 10 nM | 10 to 50 nM | 10 to 50 nM | CNC(=O)c1nnc(NC(=O)C2CC2)cc1Nc1cccc(-c2cnn(C3CN(Cc4cccc(C(=O)N5CCCC5)n4)C3)c2)c1OC [Compound 356] |
| 0.01 to 10 nM | 50 to 500 nM | 50 to 500 nM |  |  |  | CNC(=O)c1nnc(NC(=O)C2CC2)cc1Nc1cccc(-c2ccc(C(=O)N(C)Cc3cc(S(C)(=O)=O)ccn3)nc2)c1OC [Compound 72] |
|  |  |  | 0.01 to 10 nM | 50 to 500 nM | 10 to 50 nM | CNC(=O)c1nnc(NC(=O)C2CC2)cc1Nc1cccc(-c2cnn(C3CN(Cc4cccc(C(=O)N5CCC5)n4)C3)c2)c1OC [Compound 355] |
| 0.01 to 10 nM | 500 to 5000 nM | 500 to 5000 nM |  |  |  | CNC(=O)c1nnc(NC(=O)C2CC2)cc1Nc1cccc(-c2ccc(C(=O)N(C)Cc3ccccn3)nc2)c1OC [Compound 19] |
|  |  |  | 0.01 to 10 nM | 500 to 5000 nM | 500 to 5000 nM | CNC(=O)c1nnc(NC(=O)C2CC2)cc1Nc1cccc(-c2cnn(C3CN(Cc4cccc(NS(C)(=O)=O)n4)C3)c2)c1OC [Compound 273] |
| 0.01 to 10 nM | 500 to 5000 nM | 500 to 5000 nM |  |  |  | CNC(=O)c1nnc(NC(=O)C2CC2)cc1Nc1cccc(-c2cn(C3CN(Cc4ccccn4)C3)nc2C)c1OC [Compound 184] |
|  |  |  | 0.01 to 10 nM | 50 to 500 nM | 50 to 500 nM | CNC(=O)c1nnc(NC(=O)C2CC2)cc1Nc1cccc(-c2cnn(C3CN(Cc4cccc(OC(F)F)n4)C3)c2)c1OC [Compound 243] |
|  |  |  | 0.01 to 10 nM | 5000 to 100000 nM | 5000 to 100000 nM | CNC(=O)c1nnc(NC(=O)C2CC2)cc1Nc1cccc(-c2cnc(C3CN(Cc4cccc5ncnn45)C3)nc2)c1OC [Compound 327] |
| 0.01 to 10 nM | 50 to 500 nM | 50 to 500 nM |  |  |  | CNC(=O)c1nnc(NC(=O)C2CC2)cc1Nc1cccc(-c2cnc(C(=O)N(C)Cc3cn(C)nc3C)c(F)c2)c1OC [Compound 172] |
|  |  |  | 50 to 500 nM | 5000 to 100000 nM | 5000 to 100000 nM | CNC(=O)c1nnc(NC(=O)C2CC2)cc1Nc1cccc(-c2cn(C3CN(C(C)C)C3)nc2C(C)O)c1OC (stereo not drawn) [Compound 336] |
|  |  |  | 0.01 to 10 nM | 500 to 5000 nM | 500 to 5000 nM | CNC(=O)c1nnc(NC(=O)C2CC2)cc1Nc1cccc(-c2cnn(C3CN(Cc4cccc(C(=O)N(C)CCN)n4)C3)c2)c1OC [Compound 384] |
| 0.01 to 10 nM | 500 to 5000 nM | 500 to 5000 nM |  |  |  | CNC(=O)c1nnc(NC(=O)C2CC2)cc1Nc1cccc(-c2ccc(C(=O)N(C)Cc3ccc(OC)cc3)nc2)c1OC [Compound 94] |
|  |  |  | 0.01 to 10 nM | 50 to 500 nM | 50 to 500 nM | CNC(=O)c1nnc(NC(=O)C2CC2)cc1Nc1cccc(-c2cnn(C3CN(Cc4cccc(N)n4)C3)c2)c1OC [Compound 242] |
|  |  |  | 50 to 500 nM | 5000 to 100000 nM | 500 to 5000 nM | CNC(=O)c1nnc(NC(=O)C2CC2)cc1Nc1cccc(-c2ccc(C3CN(Cc4ccc5c(n4)CCC5)C3)nc2)c1OC [Compound 385] |
| 0.01 to 10 nM | 500 to 5000 nM | 50 to 500 nM |  |  |  | CNC(=O)c1nnc(NC(=O)C2CC2)cc1Nc1cccc(-c2ccc(C(=O)N(C)Cc3cccn(C)c3=O)nc2)c1OC [Compound 23] |
| 0.01 to 10 nM | 50 to 500 nM | 50 to 500 nM |  |  |  | CNC(=O)c1nnc(NC(=O)C2CC2)cc1Nc1cccc(-c2cnn(C3CN(Cc4cccnc4)C3)c2)c1OC [Compound 89] |
|  |  |  | 0.01 to 10 nM | 500 to 5000 nM | 500 to 5000 nM | CNC(=O)c1nnc(NC(=O)C2CC2)cc1Nc1cccc(-c2cnn(C3CN(Cc4ncccc4C(F)(F)F)C3)c2)c1OC [Compound 302] |
| 10 to 50 nM | 5000 to 100000 nM | 5000 to 100000 nM |  |  |  | CNC(=O)c1nnc(NC(=O)C2CC2)cc1Nc1cccc(-c2cc(C3CN(Cc4ccccn4)C3)nn2C)c1OC [Compound 189] |
|  |  |  | 0.01 to 10 nM | 50 to 500 nM | 500 to 5000 nM | CNC(=O)c1nnc(NC(=O)C2CC2)cc1Nc1nccc(-c2ccc(C(=O)N(C)Cc3cc(C#N)ccn3)nc2)c1OC [Compound 240] |

| Kd ([1]; SPR, JAK2 JH2 domain) | IC50 ([2]; TF1 JAK2 V617F) | IC50 ([3]; TF1 JAK2 V617F) | Kd [1] | IC50 [2, 4] | IC50 [3, 4] | SMILES |
| --- | --- | --- | --- | --- | --- | --- |
|  |  |  | 0.01 to 10 nM | 50 to 500 nM | 50 to 500 nM | CNC(=O)c1nnc(NC(=O)C2CC2)cc1Nc1cccc(-c2cnn(C3CN(Cc4cccn5nccc45)C3)c2)c1OC [Compound 303] |
|  |  |  | 0.01 to 10 nM | 50 to 500 nM | 50 to 500 nM | CNC(=O)c1nnc(NC(=O)OC2CC2)cc1Nc1cccc(-c2cnn(C3CN(Cc4cccc(C#N)n4)C3)c2)c1OC [Compound 364] |
| 0.01 to 10 nM | 500 to 5000 nM | 500 to 5000 nM |  |  |  | CNC(=O)c1nnc(NC(=O)C2CC2)cc1Nc1cccc(-c2ccc(C(=O)N(C)Cc3cccc(OC(F)F)n3)nc2)c1OC [Compound 179] |
|  |  |  | 10 to 50 nM | 5000 to 100000 nM | 5000 to 100000 nM | CNC(=O)c1nnc(NC(=O)C2CC2)cc1Nc1cccc(-c2cnc(C3CN(Cc4cccn(C)c4=O)C3)nc2)c1OC [Compound 326] |
|  |  |  | 50 to 500 nM | 5000 to 100000 nM | 5000 to 100000 nM | CNC(=O)c1nnc(NC(=O)C2CC2)cc1Nc1cccc(C(=O)N[C@H](C)C2CN(Cc3ccccn3)C2)c1OC (single isomer, unassigned) [Compound 246] |
|  |  |  | 50 to 500 nM | 5000 to 100000 nM | 5000 to 100000 nM | CNC(=O)c1nnc(NC(=O)C2CC2)cc1Nc1cccc(-c2ccc(C3CN(Cc4cnn(C)c4)C3)nc2)c1OC [Compound 264] |
|  |  |  | 0.01 to 10 nM | 500 to 5000 nM | 500 to 5000 nM | CNC(=O)c1nnc(NC(=O)C2CC2)cc1Nc1cccc(-c2ccc(C(=O)N(C)Cc3cnn(C4CC4)c3C)nc2)c1OC [Compound 284] |
| 0.01 to 10 nM | 5000 to 100000 nM | 5000 to 100000 nM |  |  |  | CNC(=O)c1nnc(NC(=O)C2CC2)cc1Nc1cccc(-c2ccc(C(=O)N3CCc4cnn(C)c4C3)nc2)c1OC [Compound 120] |
|  |  |  | 50 to 500 nM | 5000 to 100000 nM | 500 to 5000 nM | CCOc1cccc(CN2CC(c3ccc(-c4cccc(Nc5cc(NC(=O)C6CC6)nnc5C(=O)NC)c4OC)cn3)C2)n1 [Compound 389] |
| 10 to 50 nM | 500 to 5000 nM | 5000 to 100000 nM |  |  |  | CNC(=O)c1nnc(NC(=O)C2CC2)cc1Nc1cccc(-c2cnn(C3(CC#N)CN(Cc4ccccn4)C3)c2)c1OC [Compound 38] |
| 0.01 to 10 nM | 500 to 5000 nM | 5000 to 100000 nM |  |  |  | CNC(=O)c1nnc(NC(=O)C2CC2)cc1Nc1cccc(-c2ccc(C(=O)N(C)Cc3ccns3)nc2)c1OC [Compound 59] |
| 10 to 50 nM | 500 to 5000 nM | 500 to 5000 nM |  |  |  | CNC(=O)c1nnc(NC(=O)C2CC2)cc1Nc1cccc(-c2ccc(C(=O)N(C)Cc3ccc(F)cc3)nc2)c1OC [Compound 113] |
|  |  |  | 0.01 to 10 nM | 5000 to 100000 nM | 5000 to 100000 nM | CNC(=O)c1nnc(NC(=O)C2CC2)cc1Nc1cccc(-c2ccc(C(=O)N(C)Cc3cc(P(C)(C)=O)ccn3)nc2)c1OC [Compound 380] |
| 0.01 to 10 nM | 500 to 5000 nM | 500 to 5000 nM |  |  |  | CNC(=O)c1nnc(NC(=O)C2CC2)cc1Nc1cccc(-c2cnc(C(=O)N(CCOC)Cc3cccn(C)c3=O)c(F)c2)c1OC [Compound 21] |
|  |  |  | 0.01 to 10 nM | 50 to 500 nM | 50 to 500 nM | CNC(=O)c1nnc(NC(=O)C2CC2)cc1Nc1cccc(-c2cnn(C3CN(Cc4nccc5cc[nH]c45)C3)c2)c1OC [Compound 254] |
|  |  |  | 0.01 to 10 nM | 50 to 500 nM | 50 to 500 nM | COc1c(Nc2cc(NC(=O)C3CC3)nnc2-c2ncc[nH]2)ccc(C)c1-c1ccc(C(=O)N(C)Cc2cc(C#N)ccn2)nc1 [Compound 371] |
|  |  |  | 10 to 50 nM | 5000 to 100000 nM | 500 to 5000 nM | CNC(=O)c1nnc(NC(=O)C2CC2)cc1Nc1cccc(-c2ccc(C3CN(Cc4cccc(C(F)(F)F)n4)C3)nc2)c1OC [Compound 391] |
| 0.01 to 10 nM | 50 to 500 nM | 500 to 5000 nM |  |  |  | CNC(=O)c1nnc(NC(=O)C2CC2)cc1Nc1cccc(-c2ccc(C(=O)N(C)[C@@H](C)c3cnn(C)c3)nc2)c1OC (single isomer, unassigned) [Compound 116] |
|  |  |  | 0.01 to 10 nM | 50 to 500 nM | 50 to 500 nM | CNC(=O)c1nnc(NC(=O)C2CC2)cc1Nc1cccc(-c2cnn(C3CN(Cc4cccc5c(F)cnn45)C3)c2)c1OC [Compound 381] |
|  |  |  | 0.01 to 10 nM | 500 to 5000 nM | 500 to 5000 nM | CNC(=O)c1nnc(NC(=O)C2CC2)cc1Nc1cccc(-c2cnn([C@@H]3CN(Cc4cccnn4)[C@H]3C)c2)c1OC (stereo in doubt) [Compound 323] |

| SMILES | Kd ([1]; SPR, JAK2 JH2 domain) | IC50 ([2]; TF1 JAK2 V617F) | IC50 ([3]; TF1 JAK2 V617F) | Kd [1] | IC50 [2, 4] | IC50 [3, 4] |
| --- | --- | --- | --- | --- | --- | --- |
| CNC(=O)c1nnc(NC(=O)C2CC2)cc1Nc1cccc(-c2ccc(C(=O)N(Cc3cccn(C)c3=O)CC(F)F)nc2)c1OC [Compound 16] | 0.01 to 10 nM | 500 to 5000 nM | 5000 to 100000 nM |  |  |  |
